Measurements taken from US8158389B2, “Products and methods for in vivo secretion of monatin” (priority 2005, dated 2012).
Several values for one entry are separate records, joined by “and”; a condition that tells them apart may be missing. Identical values can stand only once.

System: E. coli BL21 DE3 aspC/proA on pET30
Assay: Monatin excretion with glucose or malate as carbon source
Format: cell-based, Escherichia coli
Procedure: For inoculum, E. coli BL21 DE3 aspC/proA on pET30 was grown overnight in LB medium with 50 μg/mL kanamycin at 37° C. and 250 rpm. For the experimental treatments, Trp-1 medium, as described in Example 6 (Zeman, et al. Folia Microbiol. 35:200-204, (1990)), and 50 μg/mL kanamycin was used. Malate and glucose were 4 g/L initially for their respective treatments. For treatment flasks, 2.2 v/v % of inoculum was added to 50 mL medium volume in 250 mL baffled shake flasks. For glucose treatments, induction of the monatin operon was initiated at 0.8 OD600 nm. For malate treatments, induction was at 0.25 OD. At induction, 0.5 mM IPTG, 0.5 mM pyridoxine hydrochloride, and 0.2 mL of Balch's vitamins (Balch, W. E., et al., “Methanogens: reevaluation of a unique biological group,” Microbiol. Rev. 43:260-296 (1979)) were added. Temperature was reduced to 30° C. at induction.

**Q.** How did the “Monatin/dcw, 24 hour average” value (carbon source 4 g/L initially, 24 hours post induction) turn out when O=C(O)CC(O)C(=O)O (stereo not drawn) [malate] was run?
**A.** The value was 7.72 mg/g.

**Q.** What about the “Monatin/dcw, 24 hours” value (carbon source 4 g/L initially, 24 hours post induction, single flasks) of the same molecule?
**A.** The value was 7.19 mg/g and 8.25 mg/g.

**Q.** What about the “higher monatin transported per unit biomass” value (malate as primary carbon source vs glucose) of the same molecule?
**A.** Its value is 23%.
